{
  "source": "patent US20040009485A1",
  "about": "“Cellular arrays for the identification of altered gene expression” (priority 2002, published 2004)",
  "test_system": "LuxArray 1.0 luxCDABE gene fusions",
  "test": "LuxArray 1.0 solid phase identification of nalidixic acid responsive gene fusions",
  "format": "cell-based, E. coli",
  "details": "5 μg/ml, duplicate spots; for Solid expt NA/LB, t = 2 hr / Solid expt NA/LB, t = 4 hr / Solid expt NA/LB, t = 6 hr / Solid expt NA/LB, t = 8 hr: normalized; for upregulation on LuxArray 1.0: 4 hours of nalidixic acid treatment",
  "description": "The genome-registered Lux-A luxCDABE gene fusion collection. (described in Example 1) provided a list of 4988 plasmid-borne gene fusions, each with boundary information relative to the E. coli genome and the orientation relative to the lux operon. An operably linked or a functional construct was defined as one consisting of a genomic fragment encompassing a promoter adjacent to the promoterless lux operon in an orientation that causes transcription initiated at the promoter to proceed into and through the lux operon. Therefore, to identify the functional subset of the collection, criteria were computationally applied to filter the list of clones first for functionality and second for redundancy. A list of definitions of documented and predicted operons (Thieffry et al. (1998) Bioinformatics 14:391-400) was used to define genomic coordinates of the operons as the translational start codon position of the first open reading frame (ORF) in the operon and the translational stop codon position of the last ORF in the operon. Additional information included the strand on which the operon is coded (direction of transcription), and gene names (common or “b” number). The lux gene fusions were filtered computationally using the following assumptions; (i) a functional transcriptional fusion would result from any genomic fragment starting greater than 50 base pairs upstream of the start codon of the first ORF and ending anywhere between the start codon of the first ORF in the operon and the stop codon of the last ORF in the operon, thereby eliminating the occurrence of a transcriptional stop signal in the construct between the promoter and the lux operon; and (ii) the promoter contained in the genomic fragment must face in the correct orientation relative to the lux operon (pictorially represented in FIG. 6). Finally, in cases when more then one clone fit the criteria for a single operon, only the one construct containing the genomic fragment representing the greatest amount of upstream sequence was retained thereby eliminating redundancy. The PERL code used and the resulting list of 689 selected gene fusions are found in Scheme 1 and Table 18 (following Example 7). These fusions represent 27% of the 2584 known and predicted transcriptional units in the E. coli genome. Individual cultures of strains containing the identified gene fusions were rearranged from the ninety original culture plates to create a set of sixteen 96-well microplates containing all the identified fusions, duplicated with side by side symmetry, including appropriately placed controls. These 16 plates represent were used to generate the cellular arrays for use in subsequent analyses.\nThe E. coli strains were grown overnight at 37° C. in […]) LB medium supplemented with 100 μg/ml ampicillin in a set of sixteen 96-well dishes. These cultures were designated “printing plates” and were used as the cell source to manufacture the arrays. Porous membranes (Biodyne B, Nunc) were sterilized with UV illumination for 10 min then placed in contact with pre-warmed of solid LB growth media in a culture dish (OmniTray, Nunc). Printing of 4×4 subarrays was accomplished using a BioMek 2000 (Beckman Coulter) equipped with a High Density Replication Tool (HDRT). […] After sterilization, the pins are air-dried prior to the next transfer. The E. coli strains in the LuxArray were printed onto an approximately 8×12 cm membrane in two sets of triplicates.\nArrays were printed from fresh overnight cultures onto membranes on plates containing LB media. Alter 6 hr of growth at 37° C. membranes were moved to pre-warmed plates containing either LB media or LB media supplemented with 5 μg/ml nalidixic acid then replaced at 37° C. to continue growing. Images were collected for each array every two hours from 0-8 hr after relocation using a cooled CCD camera (FluorChem 8000: f0.85 lens, 2 min exposure, AlphaInnotech). […]",
  "key": {"[1]": {"details": "1pxA 1pxB rnhB dnaE fusion (lux-a.pk061.c3), listed as NA"}, "[2]": {"details": "b1728 fusion (lux-a.pk033.c5), listed as NA"}, "[3]": {"details": "b1936 fusion (lux-a.pk0019.g1), listed as NA"}, "[4]": {"details": "dinG ybiB fusion (lux-a.pk0024.f5), listed as NA"}, "[5]": {"details": "dinP fusion (lux-a.pk055.a3), listed as NA"}, "[6]": {"details": "fusion (lux-a.pk0015.d6), listed as NA"}, "[7]": {"details": "oraA fusion (lux-a.pk058.f5), listed as NA"}, "[8]": {"details": "uvrA fusion (lux-a.pk0001.b6), listed as NA"}, "[9]": {"details": "yaaF fusion (lux-a.pk031.e7), listed as NA"}, "[10]": {"details": "yfhJ fdx hscA yfhE fusion (lux-a.pk0019.g2), listed as NA"}},
  "note": "“And” between values parts separate entries of the source, which are not always exact repeats. Equal entries are not always repeated.",
  "data": [
    {"smiles": "CCn1cc(C(=O)O)c(=O)c2ccc(C)nc21", "note": "[Nalidixic acid, nalidixic acid]", "values": [
      {"measurement": "Solid expt NA/LB, t = 2 hr", "setting": "[1]", "value": "3.5 and 2.7"},
      {"measurement": "Solid expt NA/LB, t = 4 hr", "setting": "[1]", "value": "3.1 and 3.5"},
      {"measurement": "Solid expt NA/LB, t = 6 hr", "setting": "[1]", "value": "2.8 and 3.0"},
      {"measurement": "Solid expt NA/LB, t = 8 hr", "setting": "[1]", "value": "1.7 and 1.9"},
      {"measurement": "Solid expt NA/LB, t = 2 hr", "setting": "[2]", "value": "3.7 and 2.1"},
      {"measurement": "Solid expt NA/LB, t = 4 hr", "setting": "[2]", "value": "4.3 and 3.1"},
      {"measurement": "Solid expt NA/LB, t = 6 hr", "setting": "[2]", "value": "3.2 and 3.3"},
      {"measurement": "Solid expt NA/LB, t = 8 hr", "setting": "[2]", "value": "2.6 and 2.5"},
      {"measurement": "Solid expt NA/LB, t = 2 hr", "setting": "[3]", "value": "2.5 and 4.4"},
      {"measurement": "Solid expt NA/LB, t = 4 hr", "setting": "[3]", "value": "7.7 and 8.2"},
      {"measurement": "Solid expt NA/LB, t = 6 hr", "setting": "[3]", "value": "9.7 and 15.5"},
      {"measurement": "Solid expt NA/LB, t = 8 hr", "setting": "[3]", "value": "7.1 and 10.2"},
      {"measurement": "Solid expt NA/LB, t = 2 hr", "setting": "[4]", "value": "2.5 and 3.4"},
      {"measurement": "Solid expt NA/LB, t = 4 hr", "setting": "[4]", "value": "3.7 and 4.2"},
      {"measurement": "Solid expt NA/LB, t = 6 hr", "setting": "[4]", "value": "3.5 and 3.1"},
      {"measurement": "Solid expt NA/LB, t = 8 hr", "setting": "[4]", "value": "2.9 and 2.6"},
      {"measurement": "Solid expt NA/LB, t = 2 hr", "setting": "[5]", "value": "3.1 and 5.5"},
      {"measurement": "Solid expt NA/LB, t = 6 hr", "setting": "[5]", "value": "4.2 and 8.1"},
      {"measurement": "Solid expt NA/LB, t = 4 hr", "setting": "frvR frvX frvB frvA fusion (lux-a.pk046.e6)", "value": 2.3},
      {"measurement": "Solid expt NA/LB, t = 2 hr", "setting": "frvR frvX frvB frvA fusion (lux-a.pk046.e6), listed as NA", "value": "2.8 and 2.1"},
      {"measurement": "Solid expt NA/LB, t = 2 hr", "setting": "[6]", "value": "2.3 and 2.2"},
      {"measurement": "Solid expt NA/LB, t = 4 hr", "setting": "[6]", "value": "6.4 and 4.1"},
      {"measurement": "Solid expt NA/LB, t = 6 hr", "setting": "[6]", "value": "2.7 and 1.9"},
      {"measurement": "Solid expt NA/LB, t = 8 hr", "setting": "[6]", "value": "0.6 and 0.8"},
      {"measurement": "Solid expt NA/LB, t = 2 hr", "setting": "[7]", "value": "5.1 and 4.7"},
      {"measurement": "Solid expt NA/LB, t = 4 hr", "setting": "[7]", "value": "7.9 and 7.7"},
      {"measurement": "Solid expt NA/LB, t = 6 hr", "setting": "[7]", "value": "5.9 and 5.6"},
      {"measurement": "Solid expt NA/LB, t = 8 hr", "setting": "[7]", "value": "3.9 and 3.8"},
      {"measurement": "upregulation on LuxArray 1.0", "setting": "ruvA fusion", "value": "1.7 fold and 2.1 fold"},
      {"measurement": "Solid expt NA/LB, t = 2 hr", "setting": "[8]", "value": "2.5 and 2.9"},
      {"measurement": "Solid expt NA/LB, t = 4 hr", "setting": "[8]", "value": "2.3 and 2.4"},
      {"measurement": "Solid expt NA/LB, t = 6 hr", "setting": "[8]", "value": "1.6 and 1.1"},
      {"measurement": "Solid expt NA/LB, t = 8 hr", "setting": "[8]", "value": "1.0 and 0.6"},
      {"measurement": "upregulation on LuxArray 1.0", "setting": "uvrD fusion", "value": "1.6 fold and 1.9 fold"},
      {"measurement": "Solid expt NA/LB, t = 2 hr", "setting": "[9]", "value": "2.1 and 2.0"},
      {"measurement": "Solid expt NA/LB, t = 4 hr", "setting": "[9]", "value": "2.0 and 2.1"},
      {"measurement": "Solid expt NA/LB, t = 6 hr", "setting": "[9]", "value": "1.3 and 1.8"},
      {"measurement": "Solid expt NA/LB, t = 8 hr", "setting": "[9]", "value": "1.0 and 1.5"},
      {"measurement": "Solid expt NA/LB, t = 2 hr", "setting": "yfhJ fdx hscA yfhE fusion (lux-a.pk0019.g2)", "value": 2.1},
      {"measurement": "Solid expt NA/LB, t = 4 hr", "setting": "[10]", "value": "2.0 and 2.2"},
      {"measurement": "Solid expt NA/LB, t = 6 hr", "setting": "[10]", "value": "1.7 and 1.5"},
      {"measurement": "Solid expt NA/LB, t = 8 hr", "setting": "[10]", "value": "1.4 and 1.3"},
      {"measurement": "Solid expt NA/LB, t = 4 hr", "setting": "yigN fusion (lux-a.pk046.f11), listed as NA", "value": "2.5 and 4.3"}
    ]}
  ]
}
